Results on twelve compounds are retold here after US9273033B2, “Substituted pyridone derivatives as PDE10 inhibitors” (Merck Sharp & Dohme Corp., priority 2012, dated 2016).

Structures are written as SMILES.

Sequence of human PDE10A2 (Q9Y233 267-1055): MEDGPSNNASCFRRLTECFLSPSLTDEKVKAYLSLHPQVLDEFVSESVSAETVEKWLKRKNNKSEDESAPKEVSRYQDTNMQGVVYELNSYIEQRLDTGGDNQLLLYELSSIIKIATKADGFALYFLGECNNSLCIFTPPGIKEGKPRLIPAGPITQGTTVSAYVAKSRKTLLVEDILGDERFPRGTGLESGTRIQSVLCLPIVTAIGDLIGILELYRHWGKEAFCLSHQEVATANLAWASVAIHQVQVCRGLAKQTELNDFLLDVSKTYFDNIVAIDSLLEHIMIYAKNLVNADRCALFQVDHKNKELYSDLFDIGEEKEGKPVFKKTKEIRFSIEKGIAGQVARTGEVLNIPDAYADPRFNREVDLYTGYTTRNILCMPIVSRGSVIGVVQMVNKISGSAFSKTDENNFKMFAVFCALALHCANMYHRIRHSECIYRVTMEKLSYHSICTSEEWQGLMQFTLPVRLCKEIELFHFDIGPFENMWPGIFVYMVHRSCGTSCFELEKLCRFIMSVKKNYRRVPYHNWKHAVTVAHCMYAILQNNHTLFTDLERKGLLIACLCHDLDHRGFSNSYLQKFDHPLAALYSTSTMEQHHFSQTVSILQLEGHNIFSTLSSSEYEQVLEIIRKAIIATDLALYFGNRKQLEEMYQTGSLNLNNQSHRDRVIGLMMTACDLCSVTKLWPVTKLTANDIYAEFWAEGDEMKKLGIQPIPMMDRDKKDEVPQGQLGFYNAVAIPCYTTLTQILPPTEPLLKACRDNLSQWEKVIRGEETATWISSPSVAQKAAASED

The experiment has as its target human PDE10A2 (Homo sapiens (Human), UniProt Q9Y233). Description: PDE10 fluorescence polarization (IMAP FP) inhibition assay. The experiment is classed as biochemical. The conditions noted are these: human PDE10A2, FAM-labeled cAMP substrate, read-out: PDE10A Ki. As for the experimental part: The activity of the compounds in accordance with the present invention as PDE10 inhibitors may be readily determined without undue experimentation using a fluorescence polarization (FP) methodology that is well known in the art (Huang, W., et al., J. Biomol Screen, 2002, 7: 215).
In a typical experiment the PDE10 inhibitory activity of the compounds of the present invention was determined in accordance with the following experimental method. PDE10A2 was amplified from human fetal brain cDNA (Clontech, Mountain View, Calif.) using a forward primer corresponding to nucleotides 56-77 of human PDE10A2 (Accession No. AF127480, Genbank Identifier 4894716), containing a Kozak consensus sequence, and a reverse primer corresponding to nucleotides 2406-2413 of human PDE10A2 (Accession No. AF127480, Genbank Identifier 4894716). Amplification with Easy-A polymerase (Stratagene, La Jolla, Calif.) was 95° C. for 2 minutes followed by thirty three cycles of 95° C. for 40 seconds, 55° C. for 30 seconds, and 72° C. for 2 minutes 48 seconds. Final extension was 72° C. for 7 minutes. The PCR product was TA cloned into pcDNA3.2-TOPO (Invitrogen, Carlsbad, Calif.) according to standard protocol. AD293 cells with 70-80% confluency were transiently transfected with human PDE10A2/pcDNA3.2-TOPO using Lipofectamine 2000 according to manufacturer specifications (Invitrogen, Carlsbad, Calif.). Cells were harvested 48 hours post-transfection and lysed by sonication (setting 3, 10×5 sec pulses) in a buffer containing 20 mM HEPES, 1 mM EDTA and protease inhibitor cocktail (Roche). Lysate was collected by centrifugation at 75,000×g for 20 minutes. Supernatant containing the cytoplasmic fraction was used for evaluation of PDE10A2 activity. The fluorescence polarization assay for cyclic nucleotide phosphodiesterases was performed using an IMAP® FP kit supplied by Molecular Devices, Sunnyvale, Calif. (product # R8139). IMAPU technology has been applied previously to phosphodiesterase assays (Huang, W., et al., J. Biomol Screen, 2002, 7: 215). Assays were performed at room temperature in 384-well microtiter plates with an incubation volume of 20.2 μL. Solutions of test compounds were prepared in DMSO and serially diluted with DMSO to yield 8 μL of each of 10 solutions differing by 3-fold in concentration, at 32 serial dilutions per plate. 100% inhibition is determined using a known PDE10 inhibitor, which can be any compound that is present at 5,000 times its Ki value in the assay described as follows, such as papaverine (see Siuciak, et al. Neuropharmacology (2006) 51:386-396; Becker, et al. Behav Brain Res (2008) 186(2):155-60; Threlfell, et al., J Pharmacol Exp Ther (2009) 328(3):785-795), 2-{4-[pyridin-4-yl-1-(2,2,2-trifluoroethyl)-1H-pyrazol-3-yl]phenoxymethyl}quinoline succinic acid or 2-[4-(1-methyl-4-pyridin-4-yl-1H-pyrazol-3-yl)-phenoxymethyl]quinoline succinic acid (see Schmidt, et al. J Pharmacol Exp Ther (2008) 325:681-690; Threlfell, et al., J Pharmacol Exp Ther (2009) 328(3): 785-795). 0% of inhibition is determined by using DMSO (1% final concentrations).
A Labcyte Echo 555 (Labcyte, Sunnyvale, Calif.) is used to dispense 200 nL from each well of the titration plate to the 384 well assay plate. A solution of enzyme (1/1600 dilution from aliquots; sufficient to produce 20% substrate conversion) and a separate solution of FAM-labeled cAMP PDE from Molecular Devices (product # R7506), at a final concentration of 50 nM are made in the assay buffer (10 mM Tris HCl, pH 7.2, 10 mM MgCl2, 0.05% NaN3 0.01% Tween-20, and 1 mM DTT). The enzyme and the substrate are then added to the assay plates in two consecutive additions of 10 μL, and then shaken to mix. The reaction is allowed to proceed at room temperature for 30 minutes. A binding solution is then made from the kit components, comprised of 80% Solution A, 20% Solution B and binding reagent at a volume of 1/600 the total binding solution.
As usually defined, the Ki is the dissociation constant of the complex between target and ligand, obtained from inhibition or displacement. On to `COc1ccc([C@H]2C[C@@H]2COc2nc(C)ncc2-c2ccc(=O)n(CCC#N)c2)nc1` [Example 45, 3-(5-(4-(((1S,2S)-2-(5-methoxypyridin-2-yl)cyclopropyl)methoxy)-2-methylpyrimidin-5-yl)-2-oxopyridin-1(2H)-yl)propanenitrile], for which the Ki was 1.78 nM.

Turning to `Cc1ccc([C@H]2C[C@@H]2COc2nc(C)ncc2-c2ccc(=O)n(CCC#N)c2)nc1` [Example 46, 3-(5-(2-methyl-4-(((1S,2S)-2-(5-methylpyridin-2-yl)cyclopropyl)methoxy)pyrimidin-5-yl)-2-oxopyridin-1(2H)-yl)propanenitrile], the inhibition constant Ki was found to be 2.15 nM.

For `COC(=O)Cn1cc(-c2cnc(C)nc2OC[C@H]2C[C@@H]2c2ccc(OC)cn2)ccc1=O` [Example 47, methyl 2-(5-(4-(((1S,2S)-2-(5-methoxypyridin-2-yl)cyclopropyl)methoxy)-2-methylpyrimidin-5-yl)-2-oxopyridin-1(2H)-yl)acetate], the Ki amounted to 3.65 nM.

`[2H]C([2H])([2H])n1cc(-c2cnc(C)nc2OC[C@H]2C[C@@H]2c2ccc(C)cn2)ccc1=O` [Example 48, 1-methyl-5-(2-methyl-4-(((1S,2S)-2-(5-methylpyridin-2-yl)cyclopropyl)methoxy)pyrimidin-5-yl)pyridin-2(1H)-one]: the Ki was 1.7 nM.

Turning to `Cc1ccc([C@H]2C[C@@H]2COc2nc(C)ncc2-c2ccc(=O)n(CC3CC3)c2)nc1` [Example 49, 1-(cyclopropylmethyl)-5-(2-methyl-4-(((1S,2S)-2-(5-methylpyridin-2-yl)cyclopropyl)methoxy)pyrimidin-5-yl)pyridin-2(1H)-one], the Ki amounted to 0.983 nM.

For the compound `[2H]C([2H])([2H])n1cc(-c2cnc(C)nc2OC[C@H]2C[C@@H]2c2ccc(OC)cn2)ccc1=O` [Example 51, 5-(4-(((1S,2S)-2-(5-methoxypyridin-2-yl)cyclopropyl)methoxy)-2-methylpyrimidin-5-yl)-1-methylpyridin-2(1H)-one], the Ki worked out at 0.946 nM.

For the compound `COc1ccc([C@H]2C[C@@H]2COc2nc(C)ncc2-c2ccc(=O)n(CC(F)(F)F)c2)nc1` [Example 52, 5-(4-(((1S,2S)-2-(5-methoxypyridin-2-yl)cyclopropyl)methoxy)-2-methylpyrimidin-5-yl)-1-(2,2,2-trifluoroethyl)pyridin-2(1H)-one], the Ki was determined as 3.11 nM.

In the case of `COc1ccc([C@H]2C[C@@H]2COc2nc(C)ncc2-c2ccc(=O)n(CC3CC3)c2)nc1` [Example 53, 1-(cyclopropylmethyl)-5-(4-(((1S,2S)-2-(5-methoxypyridin-2-yl)cyclopropyl)methoxy)-2-methylpyrimidin-5-yl)pyridin-2(1H)-one], the Ki amounted to 0.377 nM.

`COc1cc(-c2cnc(C)nc2OC[C@H]2C[C@@H]2c2ccc3c(n2)CCC3)cn(C)c1=O` [Example 54, 5-(4-(((1S,2S)-2-(6,7-dihydro-5H-cyclopenta[b]pyridin-2-yl)cyclopropyl)methoxy)-2-methylpyrimidin-5-yl)-3-methoxy-1-methylpyridin-2(1H)-one]: the Ki worked out at 0.045 nM.

`CCc1cc(-c2cnc(C)nc2OC[C@H]2C[C@@H]2c2ccc(C)cn2)cn(C)c1=O` [Example 55, 3-ethyl-1-methyl-5-(2-methyl-4-(((1S,2S)-2-(5-methylpyridin-2-yl)cyclopropyl)methoxy)pyrimidin-5-yl)pyridin-2(1H)-one]: the Ki worked out at 0.347 nM.

On to `COc1cc(-c2cnc(C)nc2OC[C@H]2C[C@@H]2c2ccc3ccccc3n2)cn(C)c1=O` [Example 56, 3-methoxy-1-methyl-5-(2-methyl-4-(((1S,2S)-2-(quinolin-2-yl)cyclopropyl)methoxy)pyrimidin-5-yl)pyridin-2(1H)-one], for which the Ki turned out to be 0.004 nM.

With `COc1cc(-c2cnc(C)nc2OC[C@H]2C[C@@H]2c2ccc(C)cn2)cn(C)c1=O` [Example 57, 3-methoxy-1-methyl-5-(2-methyl-4-(((1S,2S)-2-(5-methylpyridin-2-yl)cyclopropyl)methoxy)pyrimidin-5-yl)pyridin-2(1H)-one], the Ki was 0.349 nM.
